Experimental data as given in patent publication US11001587B2, “Substituted indazoles as phosphatidylinositol kinase inhibitors” (CUROVIR AB, priority 2017, dated 2021).
Like-named read-outs stand apart in the source and are kept apart here.

Key:
Enterovirus 30 = test: In vitro CPE assay in mammalian cell culture, EV30; format: cell-based; conditions: viral cytopathic effect in mammalian cell culture, read-out: EV30 inhibition capacity (IC50)
Enterovirus 68 = test: In vitro CPE assay in mammalian cell culture, EV68; format: cell-based; conditions: Enterovirus D, viral cytopathic effect in mammalian cell culture, read-out: EV68 inhibition capacity (IC50)
Enterovirus 71 = test: In vitro CPE assay in mammalian cell culture, EV71; format: cell-based; conditions: Enterovirus A, viral cytopathic effect in mammalian cell culture, read-out: EV71 inhibition capacity (IC50)
coxsackie B1 virus = test: In vitro CPE assay in mammalian cell culture, B1; format: cell-based; conditions: viral cytopathic effect in mammalian cell culture, read-out: B1 inhibition capacity (IC50)
coxsackie B2 virus = test: In vitro CPE assay in mammalian cell culture, B2; format: cell-based; conditions: viral cytopathic effect in mammalian cell culture, read-out: B2 inhibition capacity (IC50)
coxsackie B3 virus = test: In vitro CPE assay in mammalian cell culture, B3; format: cell-based; conditions: Enterovirus B, viral cytopathic effect in mammalian cell culture, read-out: B3 inhibition capacity (IC50)
coxsackie B4 virus = test: In vitro CPE assay in mammalian cell culture, B4; format: cell-based; conditions: Enterovirus B, viral cytopathic effect in mammalian cell culture, read-out: B4 inhibition capacity (IC50)
coxsackie B5 virus = test: In vitro CPE assay in mammalian cell culture, B5; format: cell-based; conditions: viral cytopathic effect in mammalian cell culture, read-out: B5 inhibition capacity (IC50)
polio virus Sabin 1 = test: organism not typed; format: cell-based; conditions: read-out: Polio 1 inhibition capacity (IC50)
EV71 = test: Time of addition assay; format: cell-based, Enterovirus 71; conditions: Enterovirus A, 100 nM, EV71 at high titer
Procedure: The titer of the virus was determined by the standard method of tissue culture infective dose (TCID50) on cells. Briefly, cells were infected with 50 μl of virus suspension, and diluted 10-fold in media. The plates were incubated in 37° C. with 5% CO2 for 3-7 days and cells were inspected daily for CPE. After determining CPE, plates were stained with Gram's Crystal Violet solution and optical density was read at 540 nm. […] Substances at a final concentration of 0.1 nM-1 μM and the virus were added to the cells and incubated for 3-7 days depending on the virus and cell line used. As controls, uninfected cells and cells infected with virus (no substance) were included on each plate. The cells were stained with crystal violet after determining the CPE on infected controls and the optical density was read at 540 nm. The inhibition capacity was calculated as a % by comparison with non-infected and infected controls. Time of addition assay The assay was performed like the “in vitro assay in mammalian cell culture” described above with the exception that substance was added one hour pre inoculation (−1 h), at inoculation (0 h), and 2 hours (+2 h), 6 hours (+6 h) or 24 hours (+24 h) past inoculation. The virus EV71 was used at high titer for the test.

[1] = Metabolic stability in human liver microsomes; format: in vitro ADME; conditions: for Remaining after 1 h, HLM: human liver microsomes, 5 μM test item, 0.125 mg/mL microsomal protein; for half-life at 5 μM: human, microsomes
Procedure: (§1) Metabolic stability in human and rat liver microsomesMetabolic stability was studied using human (HLM) or rat (RLM) liver microsomes. The final composition of the assay included 5 μM of test item and reference item (Diclofenac or Imipramine) prepared from DMSO stock, so that the final concentration of DMSO was 0.1%, 0.125 mg/mL microsomal protein and cofactors (5.0 mM G-6-P, 0.06 U/mL G-6-PDH, 2.0 mM MgCl2, 1.0 mM NADP^+). Test and reference items were incubated with human or rat liver microsomes with or without cofactors. The reaction mixture (100 μL) was removed at specified time periods and the reaction was stopped by addition of stop solution. The samples were extracted in presence of internal standard and were analyzed using LC-MS/MS. The percent of the test/reference item remaining after a specified incubation period was calculated with respect to the peak area ratio at time 0 min.

[2] = Metabolic stability in rat liver microsomes; format: in vitro ADME; conditions: 5 μM test item, 0.125 mg/mL microsomal protein
Procedure: as §1

in vitro = in vitro ADME; conditions: plasma, pH 7.4
Procedure: Plasma protein binding study was performed by using a Rapid Equilibrium Dialysis (RED) device containing dialysis membrane with a molecular weight cut-off of 8,000 Daltons. Each dialysis insert contains two chambers. The red chamber was for the plasma while the white chamber was for the buffer. The human and rat plasma (pH adjusted to 7.40) samples of test items and reference items (Warfarin and Propranolol) were prepared at a required test concentration of 5 μM using 5 mM DMSO stocks (final DMSO concentration was 0.1%). 300 μL of plasma sample was added into the sample chamber. 500 μL of buffer was added into the buffer chamber. After sealing the RED device with an adhesive film, incubation was done at 37° C. with shaking at 300 rpm for 4 h. Following incubation, an aliquot of 50 μL was removed from each well (plasma and buffer side) and diluted with equal volume of opposite matrix to nullify the matrix effect. The specimens were subjected to sample extraction in presence of internal standard by liquid-liquid extraction/protein precipitation method. After extraction, the samples were transferred into labeled auto sampler vials and submitted to LC-MS/MS analysis.

Enterovirus 6 = test: In vitro CPE assay in mammalian cell culture, EV6; format: cell-based; conditions: viral cytopathic effect in mammalian cell culture, read-out: EV6 inhibition capacity (IC50)
in vivo = test: in vivo; parameters: species or system Sprague Dawley rats; conditions: male, Sprague Dawley, rat, po, 50 mg/kg
Procedure: Overnight fasted animals were administered with the test compounds in recommended vehicle 0.4% (v/v) Tween 80+2% (v/v) Glycerol and 15% w/v HPBCD by oral route with a dose of 50 mg/kg body weight at dose volume of 10 mL/kg bw. Under mild isoflurane anesthesia, blood samples were collected into pre-labeled tubes containing anticoagulant (K2EDTA—2 mg/mL blood) during the next 24 hours post dose. Collected blood samples were centrifuged at 4000 rpm, 4° C. for 10 minutes and plasma was separated and stored at −80° C. until analysis.

PI4KIIIα = PI4KIIIα (Homo sapiens, UniProt P42356); test: Phosphatidyl inositol kinase inhibition assay (ADP-Glo Kinase Assay); format: biochemical; conditions: * no inhibition at the highest tested concentration 1 μM
Sequence of PI4KIIIα (P42356 whole entry): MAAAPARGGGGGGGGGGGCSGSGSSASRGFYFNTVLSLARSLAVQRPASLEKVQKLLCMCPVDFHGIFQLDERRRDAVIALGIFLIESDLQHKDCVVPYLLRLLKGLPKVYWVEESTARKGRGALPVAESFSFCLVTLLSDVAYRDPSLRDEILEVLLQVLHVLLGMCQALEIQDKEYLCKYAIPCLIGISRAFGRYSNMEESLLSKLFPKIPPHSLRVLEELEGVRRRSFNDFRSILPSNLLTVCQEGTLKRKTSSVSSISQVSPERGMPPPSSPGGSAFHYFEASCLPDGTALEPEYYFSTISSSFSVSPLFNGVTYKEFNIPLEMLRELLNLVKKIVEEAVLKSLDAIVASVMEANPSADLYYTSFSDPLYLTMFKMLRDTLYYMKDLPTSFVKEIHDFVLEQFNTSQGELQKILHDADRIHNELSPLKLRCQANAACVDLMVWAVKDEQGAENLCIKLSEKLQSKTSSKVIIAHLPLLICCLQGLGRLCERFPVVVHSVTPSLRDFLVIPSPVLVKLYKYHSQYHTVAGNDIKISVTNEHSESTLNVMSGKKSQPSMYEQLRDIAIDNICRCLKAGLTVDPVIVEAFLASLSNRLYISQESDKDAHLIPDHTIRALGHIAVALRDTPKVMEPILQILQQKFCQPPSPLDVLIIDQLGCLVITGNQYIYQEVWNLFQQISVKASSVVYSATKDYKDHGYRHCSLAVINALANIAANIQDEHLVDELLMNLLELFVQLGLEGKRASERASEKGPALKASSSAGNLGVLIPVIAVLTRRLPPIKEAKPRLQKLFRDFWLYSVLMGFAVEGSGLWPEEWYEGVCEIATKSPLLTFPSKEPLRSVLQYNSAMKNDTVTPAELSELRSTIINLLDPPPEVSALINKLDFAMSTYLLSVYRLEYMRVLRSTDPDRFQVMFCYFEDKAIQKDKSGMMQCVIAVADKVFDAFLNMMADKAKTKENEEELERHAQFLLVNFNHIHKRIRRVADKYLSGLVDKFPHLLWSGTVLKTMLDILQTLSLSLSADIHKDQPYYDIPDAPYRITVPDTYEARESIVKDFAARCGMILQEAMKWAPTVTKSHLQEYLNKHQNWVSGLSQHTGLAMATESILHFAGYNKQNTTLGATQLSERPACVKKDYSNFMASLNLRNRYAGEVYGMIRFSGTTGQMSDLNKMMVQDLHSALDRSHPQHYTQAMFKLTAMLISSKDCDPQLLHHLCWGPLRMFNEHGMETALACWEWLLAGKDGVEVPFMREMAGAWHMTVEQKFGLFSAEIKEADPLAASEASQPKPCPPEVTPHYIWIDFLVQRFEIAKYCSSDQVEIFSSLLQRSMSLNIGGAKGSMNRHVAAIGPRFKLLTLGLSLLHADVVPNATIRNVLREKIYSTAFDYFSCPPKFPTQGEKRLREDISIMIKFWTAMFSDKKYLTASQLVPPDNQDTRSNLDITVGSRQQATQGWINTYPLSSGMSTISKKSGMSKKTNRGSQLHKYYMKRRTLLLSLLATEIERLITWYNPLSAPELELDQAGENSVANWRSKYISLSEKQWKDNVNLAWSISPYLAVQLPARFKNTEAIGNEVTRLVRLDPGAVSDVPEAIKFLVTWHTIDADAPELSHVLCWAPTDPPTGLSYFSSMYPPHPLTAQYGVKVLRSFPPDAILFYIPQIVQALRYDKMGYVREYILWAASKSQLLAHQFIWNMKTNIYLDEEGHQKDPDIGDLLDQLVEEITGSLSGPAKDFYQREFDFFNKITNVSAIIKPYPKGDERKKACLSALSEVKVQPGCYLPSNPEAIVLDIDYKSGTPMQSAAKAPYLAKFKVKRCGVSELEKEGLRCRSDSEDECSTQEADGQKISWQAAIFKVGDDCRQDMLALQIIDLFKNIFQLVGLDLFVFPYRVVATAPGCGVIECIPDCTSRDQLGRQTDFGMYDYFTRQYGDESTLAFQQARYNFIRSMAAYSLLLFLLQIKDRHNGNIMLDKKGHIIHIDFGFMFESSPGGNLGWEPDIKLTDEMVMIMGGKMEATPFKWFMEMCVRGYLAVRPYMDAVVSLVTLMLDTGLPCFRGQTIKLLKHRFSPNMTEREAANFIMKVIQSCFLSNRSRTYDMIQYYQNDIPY
Procedure: (§2) Phosphatidyl inositol kinase inhibition assay Inhibition of PI4 kinases was studied using the ADP-Glo™ Kinase Assay which is a luminescent kinase assay that measures ADP formed from a kinase reaction, wherein ADP is converted into ATP, which is converted into light by Ultra-Glo™ Luciferase. The assay is performed in two steps; first, after the kinase reaction, an equal volume of ADP-Glo™ Reagent is added to terminate the kinase reaction and deplete the remaining ATP. In the second step, the Kinase Detection Reagent is added, which simultaneously converts ADP to ATP and allows the newly synthesized ATP to be measured using a coupled luciferase/luciferin reaction. The luminescent signal produced is proportional to the activity of the kinase. Inhibition of PI3 kinases was studied using the HTRF (homogeneous time-resolved fluorescence) assay, which is a universal method for identifying and characterizing the phosphotransferase activity induced by any ATP/ADP dependent target. The formation of ADP was detected by a specific monoclonal antibody labeled with Eu^3+ cryptate, and directly correlated with the amount of phosphorylated substrate.

PI4KIIIβ = PI4KIIIβ (Homo sapiens, UniProt Q9UBF8); test: as above; format: biochemical
Sequence of PI4KIIIβ (Q9UBF8 whole entry): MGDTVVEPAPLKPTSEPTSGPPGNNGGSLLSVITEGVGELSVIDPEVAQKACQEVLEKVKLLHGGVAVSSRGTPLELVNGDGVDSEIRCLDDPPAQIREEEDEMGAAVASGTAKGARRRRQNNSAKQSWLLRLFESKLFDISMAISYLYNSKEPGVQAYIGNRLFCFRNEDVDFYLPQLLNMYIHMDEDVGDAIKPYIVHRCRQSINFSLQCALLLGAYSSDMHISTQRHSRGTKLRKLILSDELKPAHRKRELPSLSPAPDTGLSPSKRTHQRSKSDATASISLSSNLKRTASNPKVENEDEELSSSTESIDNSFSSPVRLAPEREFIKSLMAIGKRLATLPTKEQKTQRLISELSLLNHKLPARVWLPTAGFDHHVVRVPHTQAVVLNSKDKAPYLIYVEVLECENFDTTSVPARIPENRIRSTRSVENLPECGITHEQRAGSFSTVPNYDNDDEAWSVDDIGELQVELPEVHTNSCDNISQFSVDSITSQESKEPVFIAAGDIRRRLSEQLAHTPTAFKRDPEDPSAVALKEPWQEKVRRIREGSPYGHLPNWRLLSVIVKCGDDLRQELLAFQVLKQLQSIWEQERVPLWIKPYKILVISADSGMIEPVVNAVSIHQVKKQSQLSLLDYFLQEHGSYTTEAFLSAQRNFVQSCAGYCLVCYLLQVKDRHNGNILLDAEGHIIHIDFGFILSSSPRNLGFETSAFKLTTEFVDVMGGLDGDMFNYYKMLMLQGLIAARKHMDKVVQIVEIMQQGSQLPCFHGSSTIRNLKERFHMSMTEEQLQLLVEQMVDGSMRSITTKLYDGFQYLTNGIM
Procedure: as §2

PI3Kα = PI3Kα (Homo sapiens, UniProt P42336); test: PI3 kinase inhibition HTRF assay; format: biochemical; conditions: * no inhibition at the highest tested concentration 1 μM
Sequence of PI3Kα (P42336 whole entry, species assumed): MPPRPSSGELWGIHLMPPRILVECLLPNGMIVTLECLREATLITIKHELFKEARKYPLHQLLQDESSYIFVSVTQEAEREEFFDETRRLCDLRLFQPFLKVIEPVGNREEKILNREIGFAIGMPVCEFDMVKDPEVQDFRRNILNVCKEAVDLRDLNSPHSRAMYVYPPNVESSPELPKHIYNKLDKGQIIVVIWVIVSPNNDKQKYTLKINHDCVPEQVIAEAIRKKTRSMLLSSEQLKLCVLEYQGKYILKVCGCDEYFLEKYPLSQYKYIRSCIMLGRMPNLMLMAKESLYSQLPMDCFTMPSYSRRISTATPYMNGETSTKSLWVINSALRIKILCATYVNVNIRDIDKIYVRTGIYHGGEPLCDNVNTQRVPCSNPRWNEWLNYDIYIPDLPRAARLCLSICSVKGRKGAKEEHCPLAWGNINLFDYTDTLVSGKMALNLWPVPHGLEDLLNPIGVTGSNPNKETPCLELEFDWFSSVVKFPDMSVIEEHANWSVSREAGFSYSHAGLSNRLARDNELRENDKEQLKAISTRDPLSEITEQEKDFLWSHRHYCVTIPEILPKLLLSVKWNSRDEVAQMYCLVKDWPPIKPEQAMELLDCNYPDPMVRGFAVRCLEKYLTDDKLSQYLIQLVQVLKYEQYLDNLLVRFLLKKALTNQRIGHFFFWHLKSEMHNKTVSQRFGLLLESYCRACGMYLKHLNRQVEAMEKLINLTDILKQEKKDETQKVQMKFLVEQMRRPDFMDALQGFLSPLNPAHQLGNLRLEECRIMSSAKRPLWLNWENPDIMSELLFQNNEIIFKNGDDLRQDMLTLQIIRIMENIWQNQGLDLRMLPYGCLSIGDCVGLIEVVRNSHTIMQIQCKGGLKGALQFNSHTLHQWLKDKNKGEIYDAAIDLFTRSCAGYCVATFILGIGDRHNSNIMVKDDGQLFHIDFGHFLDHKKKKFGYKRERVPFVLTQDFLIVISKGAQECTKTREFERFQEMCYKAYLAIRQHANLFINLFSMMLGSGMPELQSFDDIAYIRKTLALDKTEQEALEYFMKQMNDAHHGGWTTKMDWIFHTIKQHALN
Sequence of PI3Kα (P27986 whole entry partner, species assumed): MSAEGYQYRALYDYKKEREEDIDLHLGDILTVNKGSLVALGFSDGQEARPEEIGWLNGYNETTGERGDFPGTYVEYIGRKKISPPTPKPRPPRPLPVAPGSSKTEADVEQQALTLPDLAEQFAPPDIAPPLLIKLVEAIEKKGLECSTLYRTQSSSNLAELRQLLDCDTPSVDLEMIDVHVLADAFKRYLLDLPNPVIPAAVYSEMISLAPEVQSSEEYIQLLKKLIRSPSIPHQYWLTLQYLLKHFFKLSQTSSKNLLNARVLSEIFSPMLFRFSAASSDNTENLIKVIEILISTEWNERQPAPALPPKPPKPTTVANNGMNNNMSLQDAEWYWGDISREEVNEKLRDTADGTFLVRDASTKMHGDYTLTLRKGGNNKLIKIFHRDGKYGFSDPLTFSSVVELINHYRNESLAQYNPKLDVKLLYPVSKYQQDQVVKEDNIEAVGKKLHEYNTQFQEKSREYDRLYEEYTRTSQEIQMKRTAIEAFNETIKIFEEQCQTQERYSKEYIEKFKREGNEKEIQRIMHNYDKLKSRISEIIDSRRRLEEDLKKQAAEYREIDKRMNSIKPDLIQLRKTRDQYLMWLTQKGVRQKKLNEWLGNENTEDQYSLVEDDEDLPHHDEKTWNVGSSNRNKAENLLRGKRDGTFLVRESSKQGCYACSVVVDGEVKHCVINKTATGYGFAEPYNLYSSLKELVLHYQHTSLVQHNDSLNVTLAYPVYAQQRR
Procedure: as §2

PI3Kβ = PI3Kβ (Homo sapiens, UniProt P42338); test: PI3 kinase inhibition HTRF assay; format: biochemical; conditions: * no inhibition at the highest tested concentration 1 μM
Procedure: as §2

| Compound | IC50 (Enterovirus 30) [nM] | IC50 (Enterovirus 68) [nM] | IC50 (Enterovirus 71) [nM] | IC50 (coxsackie B1 virus) [nM] | IC50 (coxsackie B2 virus) [nM] | IC50 (coxsackie B3 virus) [nM] | IC50 (coxsackie B4 virus) [nM] | IC50 (coxsackie B5 virus) [nM] | IC50 (polio virus Sabin 1) [nM] | IC50 (Enterovirus 6) [nM] | AUC(0-inf) (in vivo) [ng·h/mL] | AUC(0-t) (in vivo) [ng·h/mL] | AUCextrap (in vivo) [%] | Cmax (in vivo) [ng/mL] | MRT last (in vivo) [h] | Tmax (in vivo) [h] | half-life (in vivo) [h] | further results |
| --- | --- | --- | --- | --- | --- | --- | --- | --- | --- | --- | --- | --- | --- | --- | --- | --- | --- | --- |
| Cc1cc(NCc2ccc(S(C)(=O)=O)cc2)c2nc(C)c(-c3ccc4c(c3)c(C)nn4C)n2n1 [Example 7, 3-(1,3-dimethyl-1H-indazol-5-yl)-2,6-dimethyl-N-(4-(methyl-sulfonyl)benzyl)imidazo[1,2-b]pyridazin-8-amine] | < 100 | < 1 | < 1 | < 10 | < 10 | < 1 | < 100 | < 10 | < 10 | – | – | – | – | – | – | – | – | inhibition at 0.1 µM (EV71; 0 h, substance added at inoculation, read-out: Inhibition of cytopathogenic effect, 0 h): 85%; inhibition at 0.1 µM (EV71; 1 h, substance added one hour pre inoculation, read-out: Inhibition of cytopathogenic effect, −1 h): 95%; inhibition at 0.1 µM (EV71; substance added 2 hours past inoculation, read-out: Inhibition of cytopathogenic effect, +2 h): 100%; inhibition at 0.1 µM (EV71; substance added 6 hours past inoculation, read-out: Inhibition of cytopathogenic effect, +6 h): 91%; inhibition at 0.1 µM (EV71; substance added 24 hours past inoculation, read-out: Inhibition of cytopathogenic effect, +24 h): 2%; Remaining after 1 h, HLM [1]: 75%; half-life at 5 μM [1]: > 2 h; Remaining after 1 h, RLM [2]: 94%; fraction unbound at 4 h, 5 μM (in vitro; human): 0.005; fraction unbound at 4 h, 5 μM (in vitro; rat): 0.006 |
| Cc1cc(NCc2ccc(S(N)(=O)=O)cc2)n2nc(C)c(-c3ccc4c(c3)c(C)nn4C)c2n1 [Example 13, 4-(((3-(1,3-dimethyl-1H-indazol-5-yl)-2,5-dimethylpyrazolo[1,5-a]pyrimidin-7-yl)amino)methyl)benzene-sulfonamide] | < 100 | < 1000 | < 100 | < 1000 | < 1000 | < 100 | < 100 | < 100 | < 100 | < 1000 | 76100 ± 26800 | 62100 ± 10900 | 14.5 ± 17.1 | 5900 ± 900 | 7.5 ± 1.4 | 2 | 8.2 ± 5.4 | – |
| Cc1cc(NCc2ccncc2)c2nc(C)c(-c3ccc4c(c3)c(C)nn4C)n2n1 [Example 1, 3-(1,3-dimethyl-1H-indazol-5-yl)-2,6-dimethyl-N-(pyridin-4-ylmethyl)imidazo[1,2-b]pyridazin-8-amine] | < 0.1 | < 100 | < 10 | < 10 | < 10 | < 1 | – | < 0.1 | < 1 | < 10 | 31800 ± 8000 | 22200 ± 2100 | 27.8 ± 14.8 | 3900 ± 400 | 3.4 ± 0.2 | 1.7 ± 0.6 | 4.3 ± 2 | Remaining after 1 h, HLM [1]: 90%; half-life at 5 μM [1]: > 2 h; Remaining after 1 h, RLM [2]: 88%; fraction unbound at 4 h, 5 μM (in vitro; human): 0.016; fraction unbound at 4 h, 5 μM (in vitro; rat): 0.03 |
| Cc1cc(NCc2ccc(Cl)cc2)n2nc(C)c(-c3ccc4c(c3)c(C)nn4C)c2n1 [Example 11, N-(4-chlorobenzyl)-3-(1,3-dimethyl-1H-indazol-5-yl)-2,5-dimethylpyrazolo[1,5-a]pyrimidin-7-amine] | < 1000 | < 1000 | < 1000 | < 1000 | < 1000 | < 1000 | < 100 | < 1000 | < 1000 | < 1000 | – | – | – | – | – | – | – | – |
| Cc1cc(NCc2cccs2)n2nc(C)c(-c3ccc4c(c3)c(C)nn4C)c2n1 [Example 15, 3-(1,3-dimethyl-1H-indazol-5-yl)-2,5-dimethyl-N-(thiophen-2-ylmethyl)pyrazolo[1,5-a]pyrimidin-7-amine] | < 100 | < 100 | < 100 | < 100 | < 100 | < 100 | < 100 | < 100 | < 100 | < 100 | – | – | – | – | – | – | – | – |
| Cc1nc(NCc2ccc(Cl)cc2)n2nc(C)c(-c3ccc4c(c3)c(C)nn4C)c2n1 [Example 24, N-(4-chlorobenzyl)-8-(1,3-dimethyl-1H-indazol-5-yl)-2,7-dimethylpyrazolo[1,5-a][1,3,5]triazin-4-amine] | < 100 | < 1000 | < 100 | < 100 | < 100 | < 100 | < 100 | < 1000 | < 100 | < 1000 | – | – | – | – | – | – | – | – |
| Cc1ccc(CNc2cc(C)nn3c(-c4ccc5c(c4)c(C)nn5C)c(C)nc23)cn1 [Example 2, 3-(1,3-dimethyl-1H-indazol-5-yl)-2,6-dimethyl-N-((6-methylpyridin-3-yl)methyl)imidazo[1,2-b]pyridazin-8-amine] | < 100 | < 1000 | < 100 | < 100 | < 100 | < 10 | < 10 | < 100 | < 100 | < 100 | 64100 ± 7000 | 58600 ± 9900 | 8.8 ± 7.1 | 4800 ± 800 | 6.9 ± 0.8 | 1.7 ± 0.6 | 6.6 ± 2.4 | IC50 (PI4KIIIα): 200 nM; IC50 (PI4KIIIβ): 1.5 nM; IC50 (PI3Kα): > 1000 nM; IC50 (PI3Kβ): 1700 nM |
